ChEMBL document CHEMBL1148213, “Diterpenoids from Isodon melissoides” (J Nat Prod, 2004)
In brackets after ≈: the same amount, converted by molar mass.

Each compound was assayed on BGC-823 (assay: Cytotoxicity against human BGC823 cells).
Assay type: functional, cell-based
`C=C1[C@@H]2C[C@H](O)[C@@H]3[C@](C2)(C[C@H](OC(C)=O)[C@@H]2C(C)(C)[C@@H](OC(C)=O)C[C@H](O)[C@]23C)[C@@H]1O` was tested, and the Activity was “Not toxic”.
For `C=C1[C@@H]2C[C@H](O)[C@@H]3[C@](C2)(C[C@H](OC(C)=O)[C@@H]2C(C)(C)[C@@H](OC(C)=O)C[C@H](OC(C)=O)[C@]23C)[C@@H]1O`, the Activity was “Not toxic”.
`C=C1[C@@H]2C[C@H](O)[C@H]3[C@]4(C)CC[C@H](O)C(C)(C)[C@H]4[C@@H](OC(C)=O)C[C@]3(C2)[C@@H]1O` was tested, and the Activity was “Not toxic”.
With `C=C1[C@@H]2C[C@H](O)[C@H]3[C@]4(C)CC[C@H](O)C(C)(C)[C@H]4[C@@H](OC(C)=O)[C@H](O)[C@]3(C2)[C@@H]1O` the Activity was “Not toxic”.
In the case of `C=C1[C@@H]2C[C@H](O)[C@H]3[C@]4(C)CC[C@H](O)C(C)(C)[C@H]4[C@@H](OC(C)=O)[C@H](OC(C)=O)[C@]3(C2)[C@@H]1O`, the Activity is reported as “Not toxic”.
In the case of `C=C1[C@@H]2C[C@H](O)[C@H]3[C@]4(C)CC[C@H](OC(C)=O)C(C)(C)[C@H]4[C@@H](OC(C)=O)C[C@]3(C2)[C@@H]1O`, the Activity is reported as “Not toxic”.
`C=C1[C@@H]2C[C@H](O)[C@H]3[C@]4(C)CC[C@H](OC(C)=O)C(C)(C)[C@H]4[C@@H](OC(C)=O)[C@H](OC(C)=O)[C@]3(C2)[C@@H]1O` was tested, and the Activity was “Not toxic”.
Compound `C=C1C(=O)[C@]23C[C@H]1C[C@H](O)[C@H]2[C@]1(C)CC[C@H](OC(C)=O)C(C)(C)[C@H]1[C@@H](OC(C)=O)[C@@H]3OC(C)=O` [DAWOENSIN A] has an IC50 of 3.54 µg/mL (≈ 7.43 µM).
`C=C1C(=O)[C@]23C[C@H]1C[C@H](O)[C@H]2[C@]1(C)CC[C@H](OC(C)=O)C(C)(C)[C@H]1[C@@H](OC(C)=O)[C@@H]3O` [MELISSOIDESIN G] showed an IC50 of 6.62 µg/mL (≈ 15.2 µM).
Work on `C=C1C(=O)[C@]23C[C@H]1C[C@H](O)[C@H]2[C@]1(C)CC[C@H](O)C(C)(C)[C@H]1[C@@H](OC(C)=O)C3` [MELISSOIDESIN N] yielded an IC50 of 0.036 µg/mL (≈ 0.0956 µM).
Compound `C=C1C(=O)[C@]23C[C@H]1C[C@H](O)[C@H]2[C@]1(C)CC[C@H](OC(C)=O)C(C)(C)[C@H]1[C@@H](OC(C)=O)C3` [MELISSOIDESIN O] has an IC50 of 7.83 µg/mL (≈ 18.7 µM).
With `C=C1C(=O)[C@]23C[C@H]1C[C@H](O)[C@H]2[C@@]1(C)[C@H]([C@@H](OC(C)=O)C3)C(C)(C)[C@@H](OC(C)=O)C[C@@H]1O` [MELISSOIDESIN S] the IC50 was 7.71 µg/mL (≈ 17.7 µM).
Compound `CC[C@]1(O)C[C@H]2CN(CCc3c([nH]c4ccccc34)[C@@](C(=O)OC)(c3cc4c(cc3OC)N(C=O)[C@H]3[C@@](O)(C(=O)OC)[C@H](OC(C)=O)[C@]5(CC)C=CCN6CC[C@]43[C@@H]65)C2)C1` [VINCRISTINE] has an IC50 of 0.066 µg/mL (≈ 0.08 µM).
In the case of `C=C1C(=O)[C@]23C[C@H]1C[C@H](O)[C@H]2[C@]1(C)CC[C@H](O)C(C)(C)[C@H]1[C@@H](OC(C)=O)[C@@H]3O` [XINDONGNIN B], the IC50 is reported as 9.45 µg/mL (≈ 24.1 µM).
